The source of these data is PMC3156789 (Biochemistry, 2011).

The subject of data set [1] is CHK. In words: CHK phosphorylation of Flag-tagged β-synuclein in transfected HEK293T cells. To be noted: HEK293T co-transfected with CHK; pervanadate-treated; Western blot. It is filed as cell-based.
For data set [2], the target named is T1, CHK-His6 (Rattus norvegicus, UniProt P41243).
T1 sequence (P41243 1-467): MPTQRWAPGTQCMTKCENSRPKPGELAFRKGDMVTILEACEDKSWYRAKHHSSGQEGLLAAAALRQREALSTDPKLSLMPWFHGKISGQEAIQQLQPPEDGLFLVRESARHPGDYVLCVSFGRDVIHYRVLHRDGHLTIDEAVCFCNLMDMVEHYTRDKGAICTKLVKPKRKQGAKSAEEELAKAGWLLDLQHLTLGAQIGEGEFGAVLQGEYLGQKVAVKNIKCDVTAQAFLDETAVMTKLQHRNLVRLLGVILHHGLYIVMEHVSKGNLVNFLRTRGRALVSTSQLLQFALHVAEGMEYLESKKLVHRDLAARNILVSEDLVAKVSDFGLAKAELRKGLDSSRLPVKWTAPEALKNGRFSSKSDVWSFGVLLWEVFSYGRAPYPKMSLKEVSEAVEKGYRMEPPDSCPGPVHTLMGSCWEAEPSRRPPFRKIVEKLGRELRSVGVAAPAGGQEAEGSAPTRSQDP
In words: Kinetic analysis of phosphorylation of peptide substrates by CHK-His6. Format: biochemical.

Data set [3] is described as follows: Circular dichroism analysis of secondary structure. Format: physicochemical. To be noted: aqueous solution; SFig. 6.
In data set [4] the test system is CHK. In words: CHK phosphorylation of peptides derived from α- and β-synucleins. It is filed as biochemical. To be noted: 30 °C; for reduction in CHK phosphorylation rate: vs β-syn(112–134), Fig. 2B, P81 filter assay, [γ-^32P]ATP.
Data set [5] relates to transgenic mice. To be noted: mouse, in vivo; cited from earlier work.
Data set [6] concerns CHK. In words: Phosphorylation of α- and β-synucleins by CHK. It is filed as biochemical. To be noted: for phosphate incorporated by CHK: reaction time 120 min, synuclein 0.56 μM, CHK 0.04 μM.
For data set [7], the system named is CHK. Format: biochemical. The following applies: higher than that of hsp90 (SFig. 4B).
[8] abbreviates: CHK-His6 0.2 μM, substrate peptides 0–400 μM.
Where [9] appears, read: CHK-His6 0.2 μM, substrate peptides 0–400 μM, Lineweaver-Burk plots.
[10] abbreviates: vs β-syn(112–134) and SFK-C-terminal peptide.

Turning to “Flag-[Y127F]β-synuclein: [Y127F]β-synuclein with the Flag tag attached at the N-terminus”, in data set [1], the “effect of Y127F on CHK-induced phosphorylation in cells” value is “reduced the level of CHK-induced phosphorylation”.

Consider “KKDPEERPTFEYLQSFTATEPQYQPGENL [SFK C-terminal Peptide, reference compound]”, for which, in data set [2] (setting [8]), the kcat/KM was 5.1×10^−4 μM^−1S^−1. For the same substance, the kcat in data set [2] (setting [9]) is 0.13 ± 0.003 S^−1. Also, the “secondary structure by CD” value in data set [3] was “random coil conformation”.

With “KKKK-MEPEGESYEDPPQEEYQEYEPEA [β-syn(112–134)]”, the kcat/KM in data set [2] (setting [8]) is reported as 6.7×10^−4 μM^−1S^−1. For the same substance, the kcat in data set [2] (setting [9]) amounted to 0.17 ± 0.01 S^−1. For the same substance, the “secondary structure by CD” value in data set [3] is listed as “random coil conformation”. Moreover, the “CHK phosphorylation efficiency relative to α-syn peptide” value in data set [4] (higher than α-syn(117–140) peptide, CHK 0.11 μM, peptide 20 μM, time course (Fig. 3B)) is on record as ~ 10 fold.

On to “KKK–GESFEAQDEGIYWNVGPEA [[D9A]CHK-optimal peptide]”, for which, in data set [2] (setting [8]), the kcat/KM was 111×10^−4 μM^−1S^−1. For the same substance, the kcat in data set [2] (setting [9]) amounted to 1.27 ± 0.06 S^−1. Besides, in data set [2] (vs CHK-optimal peptide), the “effect of D9A substitution on KM” value was “small increase in KM” and the “effect of D9A substitution on kcat” value is “slight reduction of kcat”.

In the case of “KKK–GESFEDQDEGIYWNVGPEA [CHK-optimal peptide]”, in data set [2] (setting [8]), the kcat/KM was 140×10^−4 μM^−1S^−1. Also, the kcat is 1.45 ± 0.05 S^−1 in data set [2] (setting [9]) and 1.45 s⁻¹ in data set [2] (CHK-optimal peptide). For the same substance, the “kcat relative to β-syn(112–134) and SFK-C-terminal peptide” value in data set [2] (setting [10]) is “approximately ten-fold higher”. Moreover, in data set [2] (setting [10]), the “phosphorylation efficiency in comparison” value was “phosphorylated with an efficiency higher than those of β-syn(112–134) and SFK-C-terminal peptide”.

Take “[P123H] β-synuclein: β-synuclein mutant, proline to histidine substitution at position 123”: in data set [5], the “phenotype of transgenic mice overexpressing the mutant” value is recorded as “progressive neurodegeneration”.

“[Y119F, Y130F]β-syn(112–134): contains Y127 as the only tyrosine”: the “reduction in CHK phosphorylation rate” value in data set [4] came to 30%.

Consider “[Y127F] β-syn(112–134): Y127 is replaced by phenylalanine”, for which the “reduction in CHK phosphorylation rate” value in data set [4] is reported as 84%.

With α-synuclein, the “phosphate incorporated by CHK” value in data set [6] is on record as 0.024 pmol. In data set [6] (α-synuclein vs β-synuclein), the “CHK substrate quality in comparison” value was “much poorer substrate of CHK compared to β-synuclein”.

Take “β-synuclein: recombinant β-synuclein (GST-β-synuclein in Fig. 5); potential CHK substrate in rat brain cytosol”: the “phosphate incorporated by CHK” value in data set [6] is reported as ~ 0.9 pmol. For the same substance, in data set [7], the “rate of CHK phosphorylation relative to hsp90” value was ~ 23 fold.
